Measurements taken from article PMC9170106, “Pre-clinical evaluation of LASSBio-1491: From in vitro pharmacokinetic study to in vivo leishmanicidal activity” (PLoS ONE, 2022).
Where “and” joins values, the source holds several entries; their conditions need not be identical. Equal entries are not always repeated.

Columns and labels:
[1] = Aqueous solubility by UV spectroscopy; type: physicochemical; details: phosphate buffer solution, buffer solution pH 7.4, 37 °C
Experimental: The solubility assay was carried out by correlating the concentration with the absorbance obtained by ultraviolet. First, a stock solution of the compound was prepared by dissolving 1 mg in 20 mL of methanol, and then the wavelength of greatest absorption of each compound was obtained by scanning between wavelengths from 200 nm to 500 nm. From the stock solution, six dilutions were prepared (dilution factor: 2.5), and the absorbance reading was performed in quartz cuvettes (10 mm optical path) in the UV-VIS spectrophotometer (Femto 800XI) at the previously determined wavelength. With the values obtained, a calibration curve with linear regression was made, in which the linearity of the analytical method is observed, with values of correlation coefficient (p > 0.95).
The compound was dissolved in a phosphate buffer solution (pH 7.4), prepared according to the Brazilian Pharmacopoeia (Vol.1) to obtain a supersaturated solution. The supersaturated aqueous solution was kept under stirring for 4 hours at 37°C and then the sample was filtered on a 0.45 μm filter to carry out the reading at the corresponding wavelength of the compound. The solubility was then determined through the equation of the straight line obtained by the linear regression of the calibration curve of each compound [19].

PAMPA-BBB permeability = assay: PAMPA-BBB permeability
From the text: (§1) The parallel artificial membrane permeability assay uses 96-well plate in a “sandwich” type system, where one plate overlaps the other (PAMPA). […] The lipid mixture that impregnates the PVDF filter has a different constitution for the permeability tests for the blood-brain barrier (Brain lipid from pig extract in dodecane) and gastro-intestinal tract (L-α soy phosphatidylcholine in dodecane). In the PAMPA BBB and TGI assays, the optical density values obtained in the reading at each selected wavelength, for each of the compounds were analyzed in comparison with the values of several controls. In the case of the BBB, these values were used to elaborate an equation and determine the permeability coefficient (Pe), using a previously elaborated spreadsheet, and, for the TGI, these values were used to determine the absorbed fraction (Fa%), both using the Excel® program.

PAMPA-GIT permeability = details: PAMPA-GIT conditions
From the text: as §1

Plasma stability = type: in vitro ADME, rat
Experimental: For analysis of plasma stability, the LASSBio-1491 in a final concentration of 5 μM from stock solution of 1 mM, was added in 50 μL of rat plasma solution diluted in 250 μL with PBS (pH 7.4) and was placed in a shaker at 37 °C under vigorous stirring for 0, 30, 60, 120 and 240 minutes. After each reaction time, 500 μL of cold methanol and 500 μL of cold acetonitrile containing 5 uM of methyl 1,1’biphenyl-4-carboxylate 5 μM (internal standard) were added to the wells to stop the reaction. The solution was mixed and centrifuged at 24500 x g for 15 min (Universal centrifuge 320R Hettich®). The supernatant (1 mL) was filtrated and placed in vials to be analyzed by HPLC-PDA, Shimadzu—LC20AD, Kromasil C-18 column (4.6 mm x 250 mm, 5 μm), SPD M20A diode array detector, flow 1 mL/min, mobile phase acetonitrile: water 1:1 (v/v) for LASSBio-1491 and acetonitrile: water 60:40 (v/v) for LASSBio-1736, for 20 minutes at 254 nm wavelength.

Microsomal metabolism [2] = type: in vitro ADME; details: rat liver microsomes
Experimental: The study of the microsomal metabolism of the compounds was evaluated by placing 1 mg/ml rat liver microsome in a microcentrifuge tube, in the presence of a NADPH generator system (1 mM NADP^+, 1.5 mM MgCl2, 3.5 mM glucose-6-phosphate and 0.5 U/mL glucose-6-phosphate dehydrogenase) and phosphate buffer pH 7.4 in sufficient quantity for 250 μL. After 15 minutes of pre-incubation at 37°C in a water bath, the enzymatic reactions were started by adding 2 μL of a stock solution 1 mM from one of the prototypes (500 μL 20% DMSO 80% CH3CN), so that a final concentration of 5 μM was reached (0.2% DMSO, 0.8% acetonitrile).
Then, the samples were again incubated at 37°C under agitation for predetermined and fixed periods (0, 15, 30, 45 and 60 minutes). At the end of the incubation period 500 μL of cold methanol and 500 μL of cold acetonitrile containing 5 μM of methyl 1,1’biphenyl-4-carboxylate 5 μM (internal standard) were added to the wells to stop the reaction and the samples were homogenized and kept in an ice bath to accelerate protein precipitation. The mixture was centrifuged at 24500 x g for 15 minutes at 4°C (Universal centrifuge 320R Hettich®). Finally, the supernatant (1 mL) was filtrated and placed in vials to be analyzed by HPLC-PDA, Shimadzu—LC20AD, Kromasil C-18 column (4.6 mm x 250 mm, 5 μm), SPD M20A diode array detector, flow 1 mL/min, mobile phase acetonitrile: water 1:1 (v/v) for LASSBio-1491 and acetonitrile: water 60:40 (v/v) for LASSBio-1736, 20 minutes at 254 nm wavelength. Then, the microsomal half-life and clearance were calculated.

[3] = parameters: method as in PMID 35497630, PMID 29160126; details: cited from earlier work
Microsomal metabolism [4] = type: in vitro ADME; details: rat liver microsomes, without NADPH regenerating system
[5] = parameters: method as in PMID 35497630; details: cited from earlier work

solubility at 4 h [1]: 0.26 µM and 0.109 µg/mL | Papp (PAMPA-BBB permeability; PAMPA): 10.6 ×10⁻⁶ cm/s | Classification (PAMPA-BBB permeability; PAMPA-BBB): CNS+ | solubility in the PAMPA-GIT experimental set (PAMPA-GIT permeability): insoluble | Elimination rate constant (k) (Plasma stability; rat plasma): 0.0004 | t1/2 (Plasma stability; rat plasma): 28.9 h | Metabolism rate (Plasma stability; rat plasma, 5 μM, 37 °C, up to 240 min): 7.30% | half-life at 5 μM (Plasma stability; rat, rat plasma diluted with PBS, pH 7.4, rat plasma): 19.2 h | recovery at 5 μM (Plasma stability; rat, rat plasma diluted with PBS, pH 7.4, read-out: Recovery rate): 59.9% | half-life at 5 μM (Microsomal metabolism [2]; pH 7.4, with co-factor): 3.5 h | microsomal CLint at 5 μM (Microsomal metabolism [2]; pH 7.4, with co-factor, Volume x (0,693/t1/2)): 0.825 µL/min/mg | Metabolism rate with co-factor (Microsomal metabolism [2]; with NADPH regenerating system): 18.33% | Elimination rate constant (k) (Microsomal metabolism [2]; with co-factor): 0.0033 | Clapp (Microsomal metabolism [2]; with co-factor, scaled to liver and rat weight): 0.128 mL/min/kg | Metabolism rate non co-factor (Microsomal metabolism [4]): 5.81%
SMILES: O=C(N/N=C/c1ccc(C(F)(F)F)cc1)NNC(=O)c1ccc(Cl)cc1Cl [LASSBio-1736]
stability in rat plasma [3]: great stability in rat plasma | signals of hepatic or renal toxicity [5]: no preliminary signals of hepatic or renal toxicity
